Assay results: patent publication US9708325B2, “Sulfonimidoylpurinone compounds and derivatives for the treatment and prophylaxis of virus infection” (Hoffmann-La Roche Inc., priority 2015, dated 2017)
Converted amounts (≈) assume the structure as drawn. Read-outs that look alike come from different tables or passages of the source.

What was measured:
[1] = biological target: human TLR7 (Homo sapiens (Human), UniProt Q9NYK1); test: HEK-Blue-hTLR7 cells assay (SEAP reporter); assay type: cell-based; settings: 20 hrs, read-out: HEK-Blue-hTLR7 (EC50 (μM))
In short: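 HEK-Blue cells stably carrying human TLR7 and an NF-κB-driven SEAP reporter, preincubated 24 h, then exposed to serially diluted compound (1% DMSO final) for 20 h at 37 °C. Supernatant SEAP measured with QUANTI-Blue substrate, 2 h at 37 °C, absorbance read at 620–655 nm.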

[2] = test system: CYP3A4; test: Cytochrome P450 induction screening assay, mRNA induction in human cryopreserved hepatocytes; assay type: in vitro ADME; settings: 24 hours exposure
Source text: Induction of cytochrome P450 enzymes is associated with an increased prevalence of clinical drug-drug interactions. The clinical consequences of induction may be therapeutic failure caused by a decreased systemic exposure of the drug itself or a co-administered therapy, or toxicity as a result of increased bioactivation. Cytochrome P450 (CYP450) induction assay has been used to understand the potential drug-drug interaction liabilities in drug discovery stage. Human cryopreserved hepatocytes (Life Technologies, Carlsbad, USA) were thawed and cultured in collagen I coated 96-well plates with a density of 52,000 cells/well. After attachment, hepatocyte maintenance medium (HMM; Lonza, Switzerland) was changed after cells were pre-cultured overnight. […] Medium change was then performed and cells were exposed for 24 hours to test compounds, positive inducer compounds, or vehicle (0.1% DMSO), respectively. At the end of the compound exposure period, medium was removed and cells lysed using 100 μL/well MagNA Pure LC RNA isolation tissue lysis buffer (Roche Diagnostics AG, Rotkreuz, Switzerland). […] mRNA isolation was performed using the MagNA Pure 96 system (Roche Diagnostics AG, Rotkreuz, Switzerland) and the respective cellular RNA large volume kit (Roche Diagnostics AG, Rotkreuz, Switzerland) from thawed samples diluted 1:1 with PBS. […] The resulting cDNA was diluted with 40 μL of H2O before using for qRT-PCR. qRT-PCR was performed by using the forward and the reverse primer, the corresponding Universal Probe Library (all from Microsynth, Balgach, Switzerland) and the Taqman Fast advanced master mix (Applied Biosystems), on an ABI 7900 machine (Applied Biosystems). qRT-PCR Ct-values for the respective P450s were put into relation to the Ct-value of RN18S1 (microsynth, Balgach, Switzerland) of the same sample. Doing so, a respective Δct-value was calculated. Using the average of all Δct-values for the vehicle control samples, a ΔΔct-value was calculated for each sample (ΔΔct-value(sample)=Δct-value(sample)−average of Δct-value of all vehicle controls). […] The individual fold induction values were then averaged per treatment condition (usually n=3 biological replicates).

[3] = LYSA solubility; assay type: physicochemical; settings: 0.05 M phosphate buffer, pH 6.5, aqueous buffer, thermodynamic from solid
Procedure: LYSA solubility assay is used to determine the aqueous solubility of a compound. Samples were prepared in duplicate from 10 mM DMSO stock solution. […] After one night, the solutions were filtered using a microtiter filter plate. Then the filtrate and its 1/10 dilution were analyzed by HPLC-UV.

[4] = Metabolic stability in human liver microsomes
Procedure: The human microsomal stability assay is used for early assessment of metabolic stability of a test compound in human liver microsomes.
Human liver microsomes (Cat. NO.: 452117, Corning, USA; Cat. NO.: H2610, Xenotech, USA) were preincubated with test compound for 10 minutes at 37° C. in 100 mM potassium phosphate buffer, pH 7.4. The reactions were initiated by adding NADPH regenerating system. The final incubation mixtures contained 1 μM test compound, 0.5 mg/mL liver microsomal protein, 1 mM MgCL2, 1 mM NADP, 1 unit/mL isocitric dehydrogenase and 6 mM isocitric acid in 100 mM potassium phosphate buffer, pH 7.4. After incubation times of 0, 3, 6, 9, 15 and 30 minutes at 37° C., 300 μL of cold ACN (including internal standard) was added to 100 μL incubation mixture to terminate the reaction. Following precipitation and centrifugation, the amount of compound remaining in the samples were determined by LC-MS/MS. Controls of no NADPH regenerating system at zero and 30 minutes were also prepared and analyzed.

[5] = biological target: human TLR8 (Homo sapiens (Human), UniProt Q9NR97); test: HEK-Blue-hTLR8 cells assay and selectivity index; assay type: cell-based
Procedure: A stable HEK-Blue-hTLR8 cell line was purchased from InvivoGen (Cat.#: HEK-Blue-htlr8, San Diego, Calif., USA). These cells were designed for studying the stimulation of human TLR8 by monitoring the activation of NF-κB. […] Therefore the reporter expression was regulated by the NF-κB promoter upon stimulation of human TLR8 for 20 hrs. The cell culture supernatant SEAP reporter activity was determined using QUANTI-Blue™ kit (Cat.#: rep-qb1, Invivogen, San Diego, Ca, USA) at a wavelength of 640 nm, a detection medium that turns purple or blue in the presence of alkaline phosphatase.
HEK-Blue-hTLR8 cells were incubated at a density of 250,000˜450,000 cells/mL in a volume of 180 μL in a 96-well plate in Dulbecco's Modified Eagle's medium (DMEM) containing 4.5 g/L glucose, 50 U/mL penicillin, […], […], 2 mM L-glutamine, 10% (V/V) heat-inactivated fetal bovine serum for 24 hrs. Then the HEK-Blue-hTLR8 cells were incubated with addition of 20 μL test compound in a serial dilution in the presence of final DMSO at 1% and perform incubation under 37° C. in a CO2 incubator for 20 hrs. Then 20 μL of the supernatant from each well was incubated with 180 μL Quanti-blue substrate solution at 37° C. for 2 hours and the absorbance was read at 620˜655 nm using a spectrophotometer. The signalling pathway that TLR8 activation leads to downstream NF-κB activation has been widely accepted, and therefore similar reporter assay was also widely used for evaluating TLR8 agonist (Tsuneyasu Kaisho and Takashi Tanaka, Trends in Immunology, Volume 29, Issue 7, July 2008, […]; Hiroaki Hemmi et al, Nature Immunology 3, 196-200 (2002)).
The ratio of TLR8 agonism activity compared to TLR7 agonism activity was defined as the selectivity index (EC50 (TLR8) value/EC50(TLR7) value) and calculated accordingly.

[6] = patients with chronic hepatitis B, phase Ib; cited from earlier work
[7] = rat, IV 1 mpk, data from WO2016023511, cited from earlier work

Chain of human TLR7 (Q9NYK1 27-1049): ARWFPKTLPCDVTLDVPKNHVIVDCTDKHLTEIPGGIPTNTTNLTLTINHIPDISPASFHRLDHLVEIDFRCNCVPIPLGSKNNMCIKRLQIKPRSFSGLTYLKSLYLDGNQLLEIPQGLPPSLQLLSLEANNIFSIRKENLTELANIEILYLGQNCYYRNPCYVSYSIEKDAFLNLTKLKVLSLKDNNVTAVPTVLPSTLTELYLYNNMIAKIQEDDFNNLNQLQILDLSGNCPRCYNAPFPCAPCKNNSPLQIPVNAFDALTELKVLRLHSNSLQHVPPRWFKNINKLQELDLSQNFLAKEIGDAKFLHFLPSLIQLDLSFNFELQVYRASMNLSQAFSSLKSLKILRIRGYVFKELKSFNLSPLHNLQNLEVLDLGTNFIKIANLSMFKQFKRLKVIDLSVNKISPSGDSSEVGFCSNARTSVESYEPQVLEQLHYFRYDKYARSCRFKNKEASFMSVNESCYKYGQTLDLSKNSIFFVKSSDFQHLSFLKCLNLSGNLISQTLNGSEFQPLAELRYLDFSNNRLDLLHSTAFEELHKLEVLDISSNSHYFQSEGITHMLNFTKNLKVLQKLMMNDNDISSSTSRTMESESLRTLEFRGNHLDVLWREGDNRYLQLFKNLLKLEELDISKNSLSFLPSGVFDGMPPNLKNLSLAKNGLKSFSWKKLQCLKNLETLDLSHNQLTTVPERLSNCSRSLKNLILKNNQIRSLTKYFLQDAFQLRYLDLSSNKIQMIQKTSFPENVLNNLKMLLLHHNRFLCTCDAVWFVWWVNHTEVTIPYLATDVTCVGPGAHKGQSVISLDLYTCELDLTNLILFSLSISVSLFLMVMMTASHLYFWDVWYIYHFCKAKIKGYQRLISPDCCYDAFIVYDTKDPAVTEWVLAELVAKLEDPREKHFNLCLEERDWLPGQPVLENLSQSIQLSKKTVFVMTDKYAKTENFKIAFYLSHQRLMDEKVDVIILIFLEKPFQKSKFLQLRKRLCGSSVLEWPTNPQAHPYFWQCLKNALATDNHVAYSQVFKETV
Chain of human TLR8 (Q9NR97 27-1041): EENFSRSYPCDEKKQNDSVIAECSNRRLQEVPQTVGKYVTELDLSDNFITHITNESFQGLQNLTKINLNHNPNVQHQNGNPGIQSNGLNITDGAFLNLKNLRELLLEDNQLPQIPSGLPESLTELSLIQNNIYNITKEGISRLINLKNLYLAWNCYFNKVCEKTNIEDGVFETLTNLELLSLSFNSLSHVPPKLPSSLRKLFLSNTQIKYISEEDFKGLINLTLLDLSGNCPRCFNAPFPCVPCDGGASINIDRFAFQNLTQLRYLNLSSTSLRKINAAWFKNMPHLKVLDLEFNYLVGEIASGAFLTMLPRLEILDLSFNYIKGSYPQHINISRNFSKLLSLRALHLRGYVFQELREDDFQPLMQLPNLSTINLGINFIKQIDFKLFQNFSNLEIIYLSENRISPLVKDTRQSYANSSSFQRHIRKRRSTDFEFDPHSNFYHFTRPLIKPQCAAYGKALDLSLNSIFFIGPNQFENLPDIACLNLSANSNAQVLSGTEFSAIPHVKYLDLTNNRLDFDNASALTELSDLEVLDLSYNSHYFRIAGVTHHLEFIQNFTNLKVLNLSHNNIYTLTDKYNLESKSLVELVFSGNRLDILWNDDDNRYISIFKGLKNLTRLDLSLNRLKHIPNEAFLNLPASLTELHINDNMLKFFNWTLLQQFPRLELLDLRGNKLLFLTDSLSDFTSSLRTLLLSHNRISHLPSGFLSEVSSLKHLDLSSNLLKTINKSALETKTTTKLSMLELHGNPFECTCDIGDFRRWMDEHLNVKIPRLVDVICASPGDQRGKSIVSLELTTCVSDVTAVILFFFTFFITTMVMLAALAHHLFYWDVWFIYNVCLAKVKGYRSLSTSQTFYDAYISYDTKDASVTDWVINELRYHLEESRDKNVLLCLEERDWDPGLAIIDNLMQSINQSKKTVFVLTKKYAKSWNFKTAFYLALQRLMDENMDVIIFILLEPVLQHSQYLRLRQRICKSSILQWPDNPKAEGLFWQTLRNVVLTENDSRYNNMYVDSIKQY

SMILES	EC50 [1]	Relative induction of Positive control (10 μM Rifampicin) (%) [2]	solubility thermodynamic [3]	Human Liver Microsome Clearance ([4]; 1 μM test compound, 0.5 mg/mL microsomal protein, 6.15 mL/min/kg is the limitation of assay sensitivity)	Human liver microsome clearance category ([4]; categorized low/medium/high)	EC50 [5]	Selective index ([5]; EC50(TLR8) value/EC50(TLR7) value)	ISG15 mRNA induction [6]	Safety and tolerability [6]	Mean plasma concentration ([7]; 0.083 h)	Mean plasma concentration ([7]; 0.25 h)	Mean plasma concentration ([7]; 0.5 h)	Mean plasma concentration ([7]; 1 h)	Mean plasma concentration ([7]; 2 h)	Mean plasma concentration ([7]; 4 h)	Mean plasma concentration ([7]; 8 h)	CO [7]
CCCS(=N)(=O)c1nc(N)c2[nH]c(=O)n(Cc3ccc(F)cc3)c2n1 (stereo not drawn) [Example 24, 6-Amino-9-[(4-fluorophenyl)methyl]-2-(propylsulfonimidoyl)-7H-purin-8-one]	0.037 µM	−0.72%	12 µg/mL (≈ 32.9 µM)														
CCCCOc1nc(N)c2c(n1)N(Cc1cccc(CN3CCCC3)c1)CC(=O)N2 [GS-9620]	0.8 µM			17.8 mL/min/kg	high (high (16.2-23.2 mL/min/kg))	11600 nM	14	dose-dependent ISG15 mRNA induction	safe, well tolerated	170 nM	102 nM	65.4 nM	48.1 nM	21.6 nM	13 nM	4.17 nM	220 nM
